{
  "source": "patent US20160370353A1",
  "about": "“METHOD FOR DISTINGUISHING SECRETORY GRANULES OF DIFFERENT AGES” (TECHNISCHE UNIVERSITÄT DRESDEN MEDIZINISCHE FAKULTÄT CARL …, priority 2008, published 2016)",
  "test_system": "SNAP-tag (hINS-SNAP) in INS-1 cells",
  "sequence (P16455 1-182 C62A/K125A/A127T/R128A/G131K/G132T/M134L/R135S/C150S/N157G/S159E limits assumed)": "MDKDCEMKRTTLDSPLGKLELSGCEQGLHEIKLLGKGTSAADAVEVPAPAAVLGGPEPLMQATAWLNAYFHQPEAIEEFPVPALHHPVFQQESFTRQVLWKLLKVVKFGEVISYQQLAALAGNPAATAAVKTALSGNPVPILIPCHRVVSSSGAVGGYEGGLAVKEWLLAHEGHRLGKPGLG",
  "experiment": "Dual-color labeling (TMR-Star, BTP block, BG505) of living INS-1 cells expressing hINS-SNAP; co-localization analysis",
  "type": "cell-based, rat",
  "description": "The first labeling was carried out for 15 min with 2 μM TMR (red) in normal media (I ml per well), followed by 2×PBS wash and 30 min, incubation in media without the SNAP substrate. The labeling with 10 μM BTP lasted 20 min. followed by two washings with PBS and 30 min incubation in media without BTP. The period between the BTP administration and the BG505 (green) administration was 4 hour long, so that any unbound BTP had sufficient time to be cleared out of the cells, thus allowing the labeling of newly synthesized hlns-SNAP. During this period […] additional washings were performed: two times with PBS and two times with media.\nCells were then incubated with 10 μM BG505 for 30 min, followed by two washings with PBS, 30 min incubation in media and another PBS washing. After the last washing, the cells were fixed (4% PFA, pH: 7.4 for 10 min at 4° C.) and embedded (ProLong Gold antifade reagent with DAPI, P36931, Molecular Probes). […]\nSoftware analysis of the acquired images allowed the generation of images representing the co-localized pixels from both channels and also the characteristic scattered plots. […] The calculated Pearson's coefficients (10 μM BTP: 0.515; 0 μM BTP: 0.829) calculated according to Bolte et al., are in agreement with this interpretation.",
  "data": [
    {"substance": "bromothenylpteridine [BTP]", "values": [
      {"measurement": "Pearson's coefficient (co-localization of TMR and BG505 pixels)", "setting": "INS-1 cells exposed sequentially to TMR, 10 μM BTP and BG505, control without blocker (0 μM BTP): 0.829", "result": 0.515},
      {"measurement": "Co-localized pixels (white) of red and green channels", "setting": "blocking step with BTP interposed between sequential labelings with TMR-Star and BG505, many co-localized pixels when BTP omitted", "result": "No co-localization"}
    ]}
  ]
}
